Where “and” joins values, the source holds several entries; their conditions need not be identical. Equal entries are not always repeated. Inconclusive results and toxic doses are left out. Rule for the calls: active = survival T/C of 150% or more; inactive = T/C below 125% in these data. Residues, ends and D or L forms follow the SMILES beside them. *: point of attachment. Cbz = O=C(OCc1ccccc1)*; NHNH2 = NN*
System: BDF1 mice, P388 leukemia ip, median survival T/C
Assay: NCI In Vivo Anticancer Drug Screen. Data for tumor model P388 Leukemia (intraperitoneal) in B6D2F1 (BDF1) mice
Conditions: endpoint: median survival time, higher = longer survival
Method in brief: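 Vehicle-dosed animals serve as the reference; survival of compound-dosed, tumour-implanted mice is divided by it.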

[1] = dose: 100.0 mg/kg/injection, schedule: Q04DX003 (ip), vehicle: Klucel (hydroxypropylcellulose) (HPC)
[2] = dose: 50.0 mg/kg/injection, schedule: Q01DX009 (ip), vehicle: saline with Tween-80
[3] = dose: 100.0 mg/kg/injection, schedule: Q01DX009 (ip), vehicle: saline with Tween-80
[4] = dose: 200.0 mg/kg/injection, schedule: Q01DX009 (ip), vehicle: saline with Tween-80
[5] = dose: 50.0 mg/kg/injection, schedule: Q01DX010 (ip), vehicle: saline
[6] = dose: 100.0 mg/kg/injection, schedule: Q01DX010 (ip), vehicle: saline
[7] = dose: 200.0 mg/kg/injection, schedule: Q01DX010 (ip), vehicle: saline
[8] = dose: 6.25 mg/kg/injection, schedule: Q04DX003 (ip), vehicle: saline
[9] = dose: 12.5 mg/kg/injection, schedule: Q04DX003 (ip), vehicle: saline
[10] = dose: 25.0 mg/kg/injection, schedule: Q04DX003 (ip), vehicle: saline
[11] = dose: 100.0 mg/kg/injection, schedule: Q04DX003 (ip), vehicle: saline with Tween-80
[12] = dose: 200.0 mg/kg/injection, schedule: Q04DX003 (ip), vehicle: saline with Tween-80
[13] = dose: 400.0 mg/kg/injection, schedule: Q04DX003 (ip), vehicle: saline with Tween-80
[14] = dose: 50.0 mg/kg/injection, schedule: Q04DX003 (ip), vehicle: saline with Tween-80
[15] = dose: 400.0 mg/kg/injection, schedule: Q01DX009 (ip), vehicle: saline with Tween-80

Measured: T/C

COc1ccc2nc3c4ccccc4scc-3c2c1
inactive: dose: 25.0 mg/kg/injection, schedule: Q04DX003 (ip), vehicle: Klucel (hydroxypropylcellulose) (HPC) 109 % of control | dose: 50.0 mg/kg/injection, schedule: Q04DX003 (ip), vehicle: Klucel (hydroxypropylcellulose) (HPC) 109 % of control | [1] 100 % of control | dose: 148.5 mg/kg/injection, schedule: Q04DX003 (ip), vehicle: Klucel (hydroxypropylcellulose) (HPC) 109 % of control | dose: 150.0 mg/kg/injection, schedule: Q04DX003 (ip), vehicle: Klucel (hydroxypropylcellulose) (HPC) 116 % of control | dose: 225.0 mg/kg/injection, schedule: Q04DX003 (ip), vehicle: Klucel (hydroxypropylcellulose) (HPC) 100 % of control | dose: 337.5 mg/kg/injection, schedule: Q04DX003 (ip), vehicle: Klucel (hydroxypropylcellulose) (HPC) 113 % of control

O=C(NC12CC3CC(CC(C3)C1)C2)C(F)(F)F
inactive: [2] 98 % of control | [3] 105 % of control | [4] 102 % of control

CC(=O)N(O)CCCC1NC(=O)C(CCCN(O)C(C)=O)NC1=O (centres undefined)
inactive: dose: 100.0 mg/kg/injection, schedule: Q01DX001 (ip), vehicle: saline 90 % of control | dose: 200.0 mg/kg/injection, schedule: Q01DX001 (ip), vehicle: saline 90 % of control | dose: 400.0 mg/kg/injection, schedule: Q01DX001 (ip), vehicle: saline 95 % of control

C=C(NC(C)=O)C(=O)O
inactive: dose: 20.0 mg/kg/injection, schedule: Q04DX003 (ip), vehicle: Klucel (hydroxypropylcellulose) (HPC) 108 % of control | dose: 25.0 mg/kg/injection, schedule: Q01DX009 (ip), vehicle: Klucel (hydroxypropylcellulose) (HPC) 104 % of control | dose: 40.0 mg/kg/injection, schedule: Q04DX003 (ip), vehicle: Klucel (hydroxypropylcellulose) (HPC) 108 % of control | dose: 50.0 mg/kg/injection, schedule: Q01DX009 (ip), vehicle: Klucel (hydroxypropylcellulose) (HPC) 104 % of control | dose: 80.0 mg/kg/injection, schedule: Q04DX003 (ip), vehicle: Klucel (hydroxypropylcellulose) (HPC) 86 % of control | dose: 100.0 mg/kg/injection, schedule: Q01DX009 (ip), vehicle: Klucel (hydroxypropylcellulose) (HPC) 90 % of control | [1] 95 % of control

CC1(c2ccc(Cl)cc2)NC(=O)NC1=O (centres undefined)
inactive: dose: 200.0 mg/kg/injection, schedule: Q04DX003 (ip), vehicle: saline sonified 91 % of control | dose: 400.0 mg/kg/injection, schedule: Q04DX003 (ip), vehicle: saline sonified 87 % of control

Cc1cc2nc3c(=O)[nH]c(=O)nc-3n(CC(O)C(O)C(O)C(O)CO)c2cc1C (centres undefined)
inactive: dose: 25.0 mg/kg/injection, schedule: Q01DX010 (ip), vehicle: saline 109 % of control | [5] 95 % of control and 100 % of control | [6] 90 % of control and 95 % of control and 104 % of control | [7] 100 % of control and 114 % of control | dose: 400.0 mg/kg/injection, schedule: Q01DX010 (ip), vehicle: saline 104 % of control and 110 % of control and 114 % of control

C=CC(OC)OC
inactive: [8] 95 % of control | [9] 100 % of control | [10] 104 % of control

COc1ccc2c(c1OC)C(=O)OC2(O)C1=NCCc2cc3c(cc21)OCO3 (centres undefined)
inactive: dose: 50.0 mg/kg/injection, schedule: Q01DX005 (ip), vehicle: saline with Tween-80 111 % of control | dose: 100.0 mg/kg/injection, schedule: Q01DX005 (ip), vehicle: saline with Tween-80 98 % of control | dose: 200.0 mg/kg/injection, schedule: Q01DX005 (ip), vehicle: saline with Tween-80 109 % of control

C=CCOC(=O)c1ccccc1N
inactive: [3] 118 % of control | [11] 110 % of control | [4] 118 % of control | [12] 115 % of control | [13] 110 % of control

O=S1(=O)C2CCCCC2(N2CCOCC2)C1c1ccccc1 (centres undefined)
inactive: dose: 100.0 mg/kg/injection, schedule: Q04DX003 (ip), vehicle: other 100 % of control | dose: 178.0 mg/kg/injection, schedule: Q04DX003 (ip), vehicle: other 109 % of control | dose: 200.0 mg/kg/injection, schedule: Q04DX003 (ip), vehicle: other 104 % of control | dose: 266.0 mg/kg/injection, schedule: Q04DX003 (ip), vehicle: other 104 % of control | dose: 400.0 mg/kg/injection, schedule: Q04DX003 (ip), vehicle: other 100 % of control

O=C(COc1ccc(Cl)cc1Cl)Oc1c(Cl)c(Cl)c(Cl)c(Cl)c1Cl
inactive: [14] 91 % of control | [11] 87 % of control

CC(=O)N(C(C)=O)c1cc([N+](=O)[O-])ccc1C
inactive: [11] 106 % of control | [12] 93 % of control

Cc1cccn2c(C)nnc12
inactive: dose: 25.0 mg/kg/injection, schedule: Q01DX009 (ip), vehicle: saline with Tween-80 110 % of control | [2] 101 % of control | [3] 99 % of control

CC(C)c1ccc(N2C(N)=NC(N)=NC2(C)C)cc1
inactive: dose: 12.5 mg/kg/injection, schedule: Q01DX005 (ip), vehicle: Klucel (hydroxypropylcellulose) (HPC) 110 % of control | dose: 25.0 mg/kg/injection, schedule: Q01DX005 (ip), vehicle: Klucel (hydroxypropylcellulose) (HPC) 108 % of control | dose: 50.0 mg/kg/injection, schedule: Q01DX005 (ip), vehicle: Klucel (hydroxypropylcellulose) (HPC) 105 % of control

C=CC[Se]c1nc(N)nc2c1ncn2C1OC(CO)C(O)C1O (centres undefined)
inactive: dose: 6.25 mg/kg/injection, schedule: Q01DX009 (ip), vehicle: saline 105 % of control | [8] 100 % of control | dose: 12.5 mg/kg/injection, schedule: Q01DX009 (ip), vehicle: saline 111 % of control | [9] 100 % of control | dose: 25.0 mg/kg/injection, schedule: Q01DX009 (ip), vehicle: saline 100 % of control | [10] 95 % of control and 104 % of control | dose: 50.0 mg/kg/injection, schedule: Q04DX003 (ip), vehicle: saline 90 % of control | dose: 100.0 mg/kg/injection, schedule: Q04DX003 (ip), vehicle: saline 90 % of control

CCOC(=O)c1ccc(NCc2cccc([N+](=O)[O-])c2)cc1
inactive: dose: 100.0 mg/kg/injection, schedule: Q01DX001 (ip), vehicle: Klucel (hydroxypropylcellulose) (HPC) 115 % of control | dose: 200.0 mg/kg/injection, schedule: Q01DX001 (ip), vehicle: Klucel (hydroxypropylcellulose) (HPC) 100 % of control | dose: 400.0 mg/kg/injection, schedule: Q01DX001 (ip), vehicle: Klucel (hydroxypropylcellulose) (HPC) 93 % of control

C[C@]12C=CC(=O)C=C1CC[C@@H]1[C@@H]2[C@@H](O)C[C@@]2(C)[C@H]1CC[C@]2(O)C(=O)COC(=O)CCC(=O)O
inactive: dose: 66.0 mg/kg/injection, schedule: Q04DX003 (ip), vehicle: saline with Tween-80 113 % of control | [11] 113 % of control | dose: 150.0 mg/kg/injection, schedule: Q04DX003 (ip), vehicle: saline with Tween-80 108 % of control | [4] 118 % of control | [15] 118 % of control | [13] 104 % of control

COc1ccc(CN2CCN(Cc3ccc(OC)c(OC)c3)C2c2ccc(OC)c(OC)c2)cc1OC
inactive: [3] 109 % of control | [11] 105 % of control | [4] 100 % of control | [12] 105 % of control | [15] 100 % of control | [13] 95 % of control

CSP12(OCCO1)OCCO2
inactive: dose: 50.0 mg/kg/injection, schedule: Q01DX005 (ip), vehicle: saline 94 % of control | dose: 100.0 mg/kg/injection, schedule: Q01DX005 (ip), vehicle: saline 94 % of control | dose: 200.0 mg/kg/injection, schedule: Q01DX005 (ip), vehicle: saline 91 % of control

CC(C)C(NC(=O)C1CCCN1C(=O)OCc1ccccc1)C(=O)NN (stereo not drawn) (Cbz-Pro-Val-NHNH2; configuration not given here)
inactive: [14] 100 % of control | [11] 100 % of control | [12] 91 % of control | [13] 100 % of control

CC(Cc1ccc(O)c(O)c1)C(C)Cc1ccc(O)c(O)c1 (centres undefined)
inactive: [5] 100 % of control | [6] 104 % of control | [7] 104 % of control

O=CN1CCCC1C(=O)O (centres undefined)
inactive: dose: 6.25 mg/kg/injection, schedule: Q01DX009 (ip), vehicle: water 103 % of control | dose: 12.5 mg/kg/injection, schedule: Q01DX009 (ip), vehicle: water 99 % of control | dose: 25.0 mg/kg/injection, schedule: Q01DX009 (ip), vehicle: water 96 % of control | dose: 50.0 mg/kg/injection, schedule: Q01DX009 (ip), vehicle: water 94 % of control

CC(C)OC(=O)c1ccc(C(C)C)cc1
inactive: [3] 110 % of control | [4] 117 % of control

CCOC(=O)/C(=C(/N)C1OC(COC(c2ccccc2)(c2ccccc2)c2ccccc2)C2OC(C)(C)OC12)C1CC(=O)N(C)C1=O (centres undefined)
inactive: [2] 99 % of control | [3] 90 % of control
